Read-outs that look alike come from different tables or passages of the source.
What was measured:
[1] = Statistical comparison of equilibrium solubility data sets (Mann-Whitney test / two-sample t-test); assay type: physicochemical; settings: for statistical comparison of fasted against fed equilibrium solubility: current dual level DoE, where significant, fasted solubility lower than fed; for statistical comparison of dual level fasted with published fasted equilibrium solubility: current fasted arm vs published fasted DoE
Source text: The Kolmogorov normality test was used in Minitab to assess the normality distribution of each data set. A Mann–Whitney test was used to evaluate the median between two data sets (not normally distributed) and the two-sample t-test was used to evaluate the mean of two data sets (normally distributed).

[2] = Equilibrium solubility in simulated intestinal fluid, dual level DoE, fasted arm; assay type: physicochemical; settings: for statistical significance of DoE factor BS:PL on equilibrium solubility / statistical significance of DoE factor bile salt on equilibrium solubility / statistical significance of DoE factor cholesterol on equilibrium solubility / statistical significance of DoE factor lecithin on equilibrium solubility / statistical significance of DoE factor monoglyceride on equilibrium solubility / statistical significance of DoE factor pH on equilibrium solubility / statistical significance of DoE factor sodium oleate on equilibrium solubility: fasted, current study (Figure 3)
Source text: (§1) For each media parameter (bile salt, lecithin, sodium oleate, monoglyceride, cholesterol, pH and BS: PL ratio) lower and upper limit concentration values for fasted and fed states were defined, Table 1. Using Minitab 17.2.1 and a custom experimental design, a 1/16 of the full factorial DoE with the seven factors and two levels (lower and upper limits) was constructed (8 experiments around the upper and lower levels plus two center points) separately for the fasted and the fed states. These two tables were then applied as an input for a factorial custom design of experiment which combined the fasted and fed using all 20 data points to provide an overall analysis. The study therefore consists of three arms, two smaller (10 data point) fasted and fed arms, which are then merged into a larger (20 data point) combined arm.
(§2) When designing and analyzing the DoE, only a factor’s main effects and 2 way interactions have been considered and 3 way interactions or more were not included. For each DoE the magnitude for each factor’s effect on equilibrium solubility was determined by the standardized effect value for all of the individual factors and the significant 2-way interactions. This value was used to articulate whether these factors are increasing or decreasing drug solubility.
(§3) The solution was prepared by the addition of an excess amount (above the estimated solubility) of solid for each compound investigated to a centrifuge tube (15 mL Corning Centristar cap, polypropylene RNase/DNase free, nonpyrogenic) followed by the addition of each component of the simulated intestinal fluid media according to the run order generated by the DoE. After all of the media components were added, pH was adjusted to 5, 6, or 7 according to the run order using 0.1 M HCl or 0.1 M KOH and tubes were capped and placed on an orbital shaker (OS 5 basic Yellowline, IKA, Germany) for 1 h after which the pH was readjusted if required. The 20 different tubes were then shaken in a tube rotator for 24 h at 40 rpm at 37 °C to simulate intestinal fluid conditions. After 24 h, a 1 mL amount was taken from each of the 20 tubes and transferred to a 1.5 mL Eppendorf tube then centrifuged at 15 000 rpm for 5 min. Following centrifugation 0.5 mL of the supernatant solution was transferred to an HPLC vial to analyze drug solubility using HPLC (Table 4).

[3] = design: method as in ref 14, Figure 2; settings: fed, published; Figure 2; cited from earlier work
[4] = design: method as in ref 13, Figure 2; settings: fasted, published; Figure 2; cited from earlier work
[5] = Equilibrium solubility in simulated intestinal fluid, dual level DoE, combined fasted and fed arm; assay type: physicochemical; settings: for variability of equilibrium solubility: across DoE media, fasted or fed arm, Figures 1 and 2; for significant DoE factors influencing solubility: combined arm (seven possible factors per drug), significance ±2; for significant two way factor interactions on solubility: eight two way interactions, Figure 4
Source text: as §1, §2, §3

[6] = Equilibrium solubility in simulated intestinal fluid, dual level DoE, fed arm; assay type: physicochemical; settings: fed, current study (Figure 3)
Source text: as §1, §2, §3

[7] = cited from earlier work

| statistical comparison of fasted against fed equilibrium solubility [1] | statistical significance of DoE factor BS:PL on equilibrium solubility [2] | statistical significance of DoE factor bile salt on equilibrium solubility [2] | statistical significance of DoE factor cholesterol on equilibrium solubility [2] | statistical significance of DoE factor lecithin on equilibrium solubility [2] | statistical significance of DoE factor monoglyceride on equilibrium solubility [2] | statistical significance of DoE factor pH on equilibrium solubility [2] | statistical significance of DoE factor sodium oleate on equilibrium solubility [2] | statistical significance of DoE factor BS:PL on equilibrium solubility [6] | statistical significance of DoE factor bile salt on equilibrium solubility [6] | statistical significance of DoE factor cholesterol on equilibrium solubility [6] | statistical significance of DoE factor lecithin on equilibrium solubility [6] | Compound | statistical significance of DoE factor bile salt on equilibrium solubility [3] | statistical significance of DoE factor lecithin on equilibrium solubility [3] | statistical significance of DoE factor monoglyceride on equilibrium solubility [3] | statistical significance of DoE factor pH on equilibrium solubility [3] | statistical significance of DoE factor bile salt on equilibrium solubility [4] | statistical significance of DoE factor lecithin on equilibrium solubility [4] | statistical significance of DoE factor pH on equilibrium solubility [4] | statistical significance of DoE factor sodium oleate on equilibrium solubility [4] | further results |
| --- | --- | --- | --- | --- | --- | --- | --- | --- | --- | --- | --- | --- | --- | --- | --- | --- | --- | --- | --- | --- | --- |
| no statistically significant difference | S ^d | NS ^e ^g | S ^d | NS ^e ^g | NS ^e | S ^d | S ^d | NS ^e | NS ^e ^g | NS ^e | NS ^e | O=C1NC(=O)C(c2ccccc2)(c2ccccc2)N1 [phenytoin] | S ^d ^g | NS ^e | S ^d ^g | S ^d ^g | S ^d ^g | S ^d ^g | S ^d | S ^d | statistical comparison of dual level fasted with published fasted equilibrium solubility [1]: significantly different; statistical comparison of dual level fed with published fed equilibrium solubility ([1]; current fed arm vs published fed DoE): significantly different; direction of pH effect on solubility (standardized effect) ([2]; fasted and fed study arms, Figure 3): negative effect; direction of cholesterol effect on solubility (standardized effect) ([2]; fasted arm, Figure 3): significant negative solubility effect; statistical significance of DoE factor sodium oleate on equilibrium solubility [3]: S ^d ^g; variability of equilibrium solubility [5]: low solubility variability; significant DoE factors influencing solubility [5]: no significant factors; significant two way factor interactions on solubility ([5]; combined arm): significant interactions; statistical significance of DoE factor monoglyceride on equilibrium solubility [6]: NS ^e ^g; statistical significance of DoE factor pH on equilibrium solubility [6]: NS ^e ^g; statistical significance of DoE factor sodium oleate on equilibrium solubility [6]: NS ^e ^g; pKa ([7]; no reference given): 8.1 |
| no statistically significant difference | S ^d | NS ^e | NS ^e | NS ^e | NS ^e | NS ^e ^g | S ^d | NS ^e | NS ^e ^g | NS ^e | NS ^e ^g | CC(C)(Sc1cc(C(C)(C)C)c(O)c(C(C)(C)C)c1)Sc1cc(C(C)(C)C)c(O)c(C(C)(C)C)c1 [probucol] | S ^d ^g | S ^d ^g | S ^d ^g | S ^d ^g | NS ^e | NS ^e | S ^d ^g | S ^d | statistical comparison of dual level fasted with published fasted equilibrium solubility [1]: significantly different; variability of equilibrium solubility [5]: large variability; significant two way factor interactions on solubility ([5]; combined arm): significant interactions; statistical significance of DoE factor monoglyceride on equilibrium solubility [6]: NS ^e ^g; statistical significance of DoE factor pH on equilibrium solubility [6]: NS ^e ^g; statistical significance of DoE factor sodium oleate on equilibrium solubility [6]: S ^d ^g |
| significant difference | NS ^e | NS ^e ^g | NS ^e | NS ^e ^g | NS ^e | NS ^e ^g | NS ^e ^g | NS ^e | NS ^e ^g | NS ^e | NS ^e | CN1CC(=O)N2[C@H](c3ccc4c(c3)OCO4)c3[nH]c4ccccc4c3C[C@@H]2C1=O [tadalafil] | S ^d ^g | NS ^e | NS ^e | NS ^e | S ^d ^g | S ^d ^g | S ^d ^g | S ^d ^g | statistical comparison of dual level fasted with published fasted equilibrium solubility [1]: significantly different; significant DoE factors influencing solubility ([2]; fasted and fed study arms together (14 possible values per drug), significance ±4): no significant factors; statistical significance of DoE factor sodium oleate on equilibrium solubility [3]: S ^d ^g; significance of sodium oleate for solubility ([5]; combined arm, Figure 4, significance ±2, positive solubility impact): significant; statistical significance of DoE factor monoglyceride on equilibrium solubility [6]: NS ^e; statistical significance of DoE factor pH on equilibrium solubility [6]: NS ^e; statistical significance of DoE factor sodium oleate on equilibrium solubility [6]: NS ^e ^g; pKa ([7]; reported): 15 |
| significant difference | NS ^e | NS ^e ^g | S ^d | NS ^e ^g | S ^d | S ^d | NS ^e ^g | NS ^e | NS ^e ^g | NS ^e | NS ^e | COc1cc(C(=O)NS(=O)(=O)c2ccccc2C)ccc1Cc1cn(C)c2ccc(NC(=O)OC3CCCC3)cc12 [zafirlukast] | S ^d ^g | NS ^e | NS ^e | S ^d ^g | S ^d ^g | S ^d ^g | S ^d | S ^d ^g | direction of cholesterol effect on solubility (standardized effect) ([2]; fasted arm, Figure 3): positive effect; direction of monoglyceride effect on solubility (standardized effect) ([2]; fasted arm, Figure 3): negative effect; significant DoE factors influencing solubility [5]: no significant factors; significant two way factor interactions on solubility ([5]; combined arm): significant interactions; statistical significance of DoE factor monoglyceride on equilibrium solubility [6]: NS ^e; statistical significance of DoE factor pH on equilibrium solubility [6]: NS ^e ^g; statistical significance of DoE factor sodium oleate on equilibrium solubility [6]: NS ^e; pKa ([7]; reported): 4 |
